Experimental data from the PolyMetriX glass transition set.
± gives the standard deviation of the reports.

Row | Compound | glass transition temperature
1 | *c1nnc(-c2ccc(Oc3ccc(/C=C/c4ccc(Oc5ccc(*)c6ccccc56)cc4)c4ccccc34)c3ccccc23)o1 (repeat unit) | 241.00 °C
2 | *C1CCC(N2C(=O)c3ccc(-c4ccc5c(c4)C(=O)N(*)C5=O)cc3C2=O)CC1 (repeat unit) | 360.00 °C
3 | *c1ccc(CC(=O)Nc2ccc(S(=O)(=O)c3ccc(NC(=O)Cc4ccc(-c5sc(*)c(-c6ccccc6)c5-c5ccccc5)cc4)cc3)cc2)cc1 (repeat unit) | 252.00 °C
4 | */C=C/C(*)(C)C (repeat unit) | -9.00 °C
5 | *CCCCCCCCCCNC(=O)CCCCCCCCCCCCCCCCC(=O)N* (repeat unit) | 46.00 °C
6 | *CCOCCOC(=O)CCCC(=O)O* (repeat unit) | -55.00 °C
7 | *Nc1ccc(C(c2ccc(NC(=O)c3cccc(C(*)=O)c3)cc2)(P2(=O)Oc3ccccc3-c3ccccc32)P2(=O)Oc3ccccc3-c3ccccc32)cc1 (repeat unit) | 230.00 °C
8 | *N(C)[Si](C)(C=C)N(C)[Si](*)(C)C (repeat unit) | -42.00 °C
9 | *OP(=O)(Oc1ccc(Br)cc1)Oc1c(Br)cc(C(c2cc(Br)c(*)c(Br)c2)(C(F)(F)F)C(F)(F)F)cc1Br (repeat unit) | 152.00 °C
10 | *C(=O)Nc1ccc(S(=O)(=O)c2ccc(NC(=O)c3ccc4c(c3)C(=O)N(c3cccc(N5C(=O)c6ccc(*)cc6C5=O)c3)C4=O)cc2)cc1 (repeat unit) | 342.00 °C
11 | *Oc1ccc(Oc2ccc(C(=O)c3c(C(=O)c4ccc(*)cc4)c(-c4ccc(F)cc4)c(-c4ccc(F)cc4)c(-c4ccc(F)cc4)c3-c3ccc(F)cc3)cc2)cc1 (repeat unit) | 266.00 °C
12 | *N=P(N=P(N=S(*)(=O)NC)(NC)NC)(NC)NC (repeat unit) | 22.00 °C
13 | *c1ccc(-c2cc(-c3ccc(OCC(CC)CCCC)cc3)cc(-c3ccc(-c4ccc5c(c4)C(CCCCCC)(CCCCCC)c4cc(*)ccc4-5)cc3)c2-c2ccc(OCC(CC)CCCC)cc2)cc1 (repeat unit) | 110.00 °C
14 | *O[Si](*)(C)CCCC(=O)O (repeat unit) | -29.00 °C
15 | *Oc1ccc(Oc2ccc(C(=O)c3ccc(C(=O)c4ccc(*)cc4)cc3)cc2)cc1-c1cccc(C)c1 (repeat unit) | 159.00 °C
16 | *c1cccc(P(=O)(c2cccc(-n3c(=O)c4c(-c5ccccc5)c5c(=O)n(*)c(=O)c5c(-c5ccccc5)c4c3=O)c2)c2cc(C(F)(F)F)cc(C(F)(F)F)c2)c1 (repeat unit) | 320.00 °C
17 | */C=C/c1ccc(*)cc1 (repeat unit) [Poly(p-phenylenevinylene)s] | 137.42 ± 150 °C

Now from value to molecule:

Row | glass transition temperature | Compound
18 | 128.50 °C | *CCOCCOc1cccc(NC(=O)c2cccc(C(=O)Nc3cccc(O*)c3)c2)c1 (repeat unit)
19 | 19.50 °C | *OC(=O)OCCCCCCCCOC(=O)OC1COC2C(*)COC12 (repeat unit)
20 | 220.00 °C | *Oc1ccc(S(=O)(=O)c2ccc(Oc3cccc(NC(=O)c4ccc(-c5ccc(C(=O)Nc6cccc(*)c6)c(C)c5)cc4C)c3)cc2)cc1 (repeat unit)
21 | 50.00 °C | *CCCCCCCCN(C)c1ccc(C(=O)c2ccc(N(*)C)cc2)cc1 (repeat unit)
22 | 275.00 °C | *Oc1cc(C(C)(C)C)c(Oc2ccc(C(=O)Nc3ccc(C(C)(C)c4ccc(NC(=O)c5ccc(*)cc5)c(C)c4)cc3C)cc2)cc1C(C)(C)C (repeat unit)
23 | 227.00 °C | */C=C/c1ccc(*)c(OCc2cc(OCCC(C)CCCC(C)C)cc(OCC(CC)CCCC)c2)c1 (repeat unit)
24 | 84.00 °C | *CC(*)(C)C(=O)OCCCCCCC(F)(F)C(F)(F)C(F)(F)C(F)(F)C(F)(F)C(F)(F)C(F)(F)C(F)(F)C(F)(F)C(F)(F)C(F)(F)C(F)(F)F (repeat unit)
25 | 140.00 °C | *C(=O)Oc1ccc(OCCCCCCCCCCCCOc2ccc(OC(=O)c3ccc4c(c3)C(=O)N(c3ccc(S(=O)(=O)c5ccc(N6C(=O)c7ccc(*)cc7C6=O)cc5)cc3)C4=O)cc2)cc1 (repeat unit)
26 | 207.00 °C | *c1cc(C(c2ccc(OCCN(C)c3ccc(/C=C/C4=CC(=C(/C#N)C(=O)OC)/CC(C)(C)C4)cc3)c(N3C(=O)c4ccc(Oc5ccc6c(c5)C(=O)N(*)C6=O)cc4C3=O)c2)(C(F)(F)F)C(F)(F)F)ccc1OCCN(c1ccccc1)c1ccc(/C=C/C2=CC(=C(/C#N)C(=O)OC)/CC(C)(C)C2)cc1 (repeat unit)
27 | 155.00 °C | *c1ccc2c(c1)C(CCCCCC)(CCCCCC)c1cc(-c3ccc4c(c3)c3cc(*)ccc3n4-c3ccc(C)cc3)ccc1-2 (repeat unit)
28 | 192.00 °C | *Oc1ccc(S(=O)(=O)c2ccc(Oc3ccc(C(=O)c4cc(Br)cc(C(=O)c5ccc(*)cc5)c4)cc3)cc2)cc1 (repeat unit)
29 | 78.00 °C | *CCCCCCN1C(=O)C(C)C(SCCOCCSC2C(=O)N(CCCCCCN3C(=O)CC(C)(SCCOCCSC4(C)CC(=O)N(*)C4=O)C3=O)C(=O)C2C)C1=O (repeat unit)
30 | 269.00 °C | *c1ccc(Cc2ccc(N3C(=O)c4ccc(Oc5ccc(Oc6ccc7c(c6)C(=O)N(*)C7=O)cc5)cc4C3=O)c(OC)c2)cc1OC (repeat unit)
31 | 286.10 °C | *c1ccc2c(c1)C(=O)N(c1c(C)cc(C(c3cccc(C(F)(F)F)c3)c3cc(C)c(N4C(=O)c5ccc(C(*)(C(F)(F)F)C(F)(F)F)cc5C4=O)c(C)c3)cc1C)C2=O (repeat unit)
32 | 320.00 °C | *c1ccc(Sc2cc3c(cc2Sc2ccc(N4C(=O)C5C6C=CC(C7C(=O)N(*)C(=O)C67)C5C4=O)cc2)C(=O)N(c2ccc(CC)cc2)C3=O)cc1 (repeat unit)
33 | 172.00 °C | *Oc1ccc(S(=O)(=O)c2ccc(Oc3ccc(C(c4ccc(*)cc4)(C(F)(F)F)C(F)(F)F)cc3)cc2[Si](C)(C)C)c([Si](C)(C)C)c1 (repeat unit)
34 | 83.00 °C | *CC(*)C(=O)OCCCn1c2ccccc2c2ccccc21 (repeat unit)
35 | 321.00 °C | *Nc1cccc(NC(=O)c2cc(NC(=O)c3ccncc3)cc(C(*)=O)c2)c1 (repeat unit)
36 | 137.00 °C | *CC(*)(C)C(=O)OCCOc1ccc(C(=O)Oc2ccc(OCCCC)cc2)cc1 (repeat unit)
37 | 230.00 °C | *Nc1cc(NC(=O)c2ccc(C(*)=O)cc2)cc(-c2nnc(-c3ccccn3)o2)c1 (repeat unit)
38 | 140.00 °C | *CC(O)COc1ccc(C2CCCC(CC)(c3ccc(O*)cc3)C2)cc1 (repeat unit)
39 | 162.00 °C | *c1cc(C(c2ccc(OCCN(C)c3ccc(/C=C/C4=CC(=C(/C#N)C(=O)OCc5ccc(Oc6c(F)c(F)c(F)c(F)c6F)cc5)/CC(C)(C)C4)cc3)c(N3C(=O)c4ccc(Oc5ccc6c(c5)C(=O)N(*)C6=O)cc4C3=O)c2)(C(F)(F)F)C(F)(F)F)ccc1OCCN(c1ccccc1)c1ccc(/C=C/C2=CC(=C(/C#N)C(=O)OCc3ccc(Oc4c(F)c(F)c(F)c(F)c4F)cc3)/CC(C)(C)C2)cc1 (repeat unit)
40 | 208.00 °C | *c1ccc(CCc2ccccc2N2C(=O)C(=O)N(c3ccc(Oc4ccc(N5C(=O)C(=O)N(*)C5=O)cc4)cc3)C2=O)cc1 (repeat unit)
41 | 50.00 °C | *CC(*)C(=O)OCC1(CC)COC(c2ccccc2)OC1 (repeat unit)
